# Data from patent US9758485B2, “Compounds for controlling arthropods” (priority 2013, dated 2017).
# Tests used:
# Lucilia cuprina = Lucilia cuprina test; type: in vivo; details: application rate 100 ppm; L1 larvae in minced horsemeat; kill after 2 days
# Method in brief: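 Mortality (%) of first-instar blowfly larvae, about 20 per vessel, recorded 2 days after exposure to compound-treated minced horsemeat. Compound dissolved in dimethyl sulphoxide, then water-diluted to the desired concentration.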
# Musca domestica = Musca domestica test; type: in vivo; details: application rate 100 ppm; adult houseflies; kill after 2 days
# Method in brief: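 Ten adult Musca domestica are exposed to a sugar-soaked sponge carrying the water-diluted DMSO formulation; kill in % is read 2 days later.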
# [1] = test system: Boophilus microplus Parkhurst strain, SP-resistant; test: Boophilus microplus - dip test; type: in vivo; details: application rate 100 ppm; dip of engorged adult female ticks; laying of fertile eggs, after 7 days
# Experimental: Boophilus microplus—Dip Test
# Test animals: cattle ticks (Boophilus microplus) Parkhurst strain, SP-resistant
# (§1) Solvent: dimethyl sulphoxide
# 10 mg of active ingredient are dissolved in 0.5 ml of dimethyl sulphoxide. For the purpose of producing a suitable formulation, the active ingredient solution is diluted with water to the concentration desired in each case.
# This active ingredient formulation is pipetted into tubes. 8-10 adult engorged female cattle ticks (Boophilus microplus) are transferred into a further tube with holes. The tube is immersed into the active ingredient formulation, and all the ticks are completely wetted. After the liquid has run out, the ticks are transferred on filter discs into plastic dishes and stored in a climate-controlled room.
# Efficacy is assessed after 7 days by laying of fertile eggs. Eggs which are not visibly fertile are stored in a climate-controlled cabinet until the larvae hatch after about 42 days. An efficacy of 100% means that none of the ticks has laid any fertile eggs; 0% means that all the eggs are fertile.
# [2] = logP determination by HPLC on a reversed-phase column (C18), EEC Directive 79/831 Annex V.A8; type: physicochemical; details: for log P: HPLC-MS, reversed-phase column (C18); for logP^a): HPLC-MS method a), Table I-T3
# Amblyomma hebraeum = Amblyomma hebraeum test (tick nymphs, immersion); type: in vivo; details: application rate 100 ppm; tick nymphs immersed for one minute; kill after 42 days
# Experimental: as §1
# To produce an appropriate active ingredient formulation, 10 mg of active ingredient are mixed with 0.5 ml of dimethyl sulphoxide, and the concentrate is diluted with water to the desired concentration.
# Tick nymphs (Amblyomma hebraeum) are placed into perforated plastic beakers and immersed in the desired concentration for one minute. The ticks are transferred on filter paper into a Petri dish and stored in a climate-controlled cabinet.
# After 42 days, the kill in % is determined. 100% means that all of the ticks have been killed; 0% means that none of the ticks have been killed.
# Ctenocephalides felis [3] = test: Ctenocephalides felis - oral test; type: in vivo; details: application rate 100 ppm in citrated cattle blood; adult fleas; kill after 2 days
# Method in brief: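 Percentage mortality recorded at 2 days, where 0% means no fleas killed. Compound dissolved in DMSO and diluted in citrated cattle blood, which roughly 20 unfed adult C. felis imbibe via a parafilm membrane.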
# Ctenocephalides felis [4] = test: Ctenocephalides felis - in vitro contact tests with adult cat fleas; type: in vivo; details: application rate 5 μg/cm^2 (=500 g/ha), after 48 h (dead or moribund)
# Method in brief: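 Efficacy, as share of dead or moribund adult Ctenocephalides felis, read 48 h after placing 5-10 fleas in tubes coated by acetone solution (5 μg/cm^2 at 900 ppm). Incubation horizontal at room temperature, ambient humidity; immobile or uncoordinated fleas scored.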
# Rhipicephalus sanguineus = Rhipicephalus sanguineus - in vitro contact tests with adult brown dog ticks; type: in vivo
# Experimental: Rhipicephalus sanguineus—In Vitro Contact Tests with Adult Brown Dog Ticks
# For the coating of the test tubes, 9 mg of active ingredient are first dissolved in 1 ml of acetone p.a. and then diluted to the desired concentration with acetone p.a. 250 μl of the solution are distributed homogeneously on the inner walls and base of a 25 ml test tube by turning and rocking on an orbital shaker (rocking rotation at 30 rpm for 2 h). With 900 ppm active ingredient solution and internal surface 44.7 cm^2, given homogeneous distribution, an area-based dose of 5 μg/cm^2 is achieved.
# After the solvent has evaporated off, the tubes are populated with 5-10 adult dog ticks (Rhipicephalus sanguineus), sealed with a perforated plastic lid and incubated in a horizontal position in the dark at room temperature and ambient humidity. After 48 h, efficacy is determined. To this end, the ticks are knocked to the floor of the tube and incubated on a hotplate at 45-50° C. for not more than 5 min. Ticks which remain motionless on the floor or move in such an uncoordinated manner that they are unable to deliberately avoid the heat by climbing upwards are considered to be dead or moribund.
# An efficacy of 100% means that all the ticks were dead or moribund. 0% efficacy means that none of the ticks had been harmed.
# Boophilus microplus = Boophilus microplus - injection test; type: in vivo; details: application rate 20 μg/animal; injected into engorged adult female ticks; laying of fertile eggs, after 7 days
# Method in brief: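 Steps: dilute compound in DMSO to the desired concentration; inject 1 μl abdominally into 5 engorged adult females; keep in climate-controlled dishes; at 7 days score fertile egg laying, incubating doubtful eggs until hatch at about 42 days.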
# [5] = application rate 5 μg/cm^2, after 48 h (dead or moribund)
SMILES,efficacy (Lucilia cuprina) [%],efficacy (Musca domestica) [%],efficacy [1] [%],log P [2],efficacy (Amblyomma hebraeum) [%],efficacy (Ctenocephalides felis [3]) [%],efficacy (Ctenocephalides felis [4]) [%],efficacy (Rhipicephalus sanguineus; [5]) [%],efficacy (Boophilus microplus) [%],"logP ([2]; HPLC, reversed-phase C18, acetonitrile/water with formic acid, 55° C.)",logP^a) [2],"efficacy (Rhipicephalus sanguineus; application rate 0.2 μg/cm^2, after 48 h (dead or moribund)) [%]"
Cc1ncc(-c2cnn(-c3c(Cl)cc(C(F)(C(F)(F)F)C(F)(F)F)cc3Cl)c2)cc1C(=O)NC1CC1 [I-T3-91],100,100,100,3.3,100,100,100,100,100,,,
O=C(NC1CC1)c1cc(-c2cnn(-c3c(Cl)cc(C(F)(C(F)(F)F)C(F)(F)F)cc3OC(F)(F)F)c2)ccc1Cl [I-T3-162],100,100,100,4.6,100,100,100,100,100,,,
Cc1cc(C(F)(C(F)(F)F)C(F)(F)F)cc(C)c1-c1cnn(-c2cnc(Cl)c(C(=O)NC3(C#N)CC3)c2)c1 [I-T4-4],100,,100,,100,100,100,100,100,4.3,,
CN(C(=O)c1cc(-c2cnn(-c3c(Cl)cc(C(F)(C(F)(F)F)C(F)(F)F)cc3C(F)(F)F)c2)cnc1Cl)C1(C#N)CC1 [I-T3-116],100,100,100,4.3,100,100,100,,100,,,
N#CC1(NC(=O)c2cc(-c3cnn(-c4c(Cl)cc(C(F)(C(F)(F)F)C(F)(F)F)cc4C(F)(F)F)c3)ccc2Cl)CC1 [I-T3-57],100,100,100,,100,100,100,,100,,4.3,
CN(C(=O)c1cc(-c2cnn(-c3c(Cl)cc(C(F)(C(F)(F)F)C(F)(F)F)cc3Cl)c2)cnc1Cl)C1CC1 [I-T3-100],100,100,100,4.4,100,100,100,,100,,,
Cc1ncc(-c2cnn(-c3c(Cl)cc(C(F)(C(F)(F)F)C(F)(F)F)cc3C(F)(F)F)c2)cc1C(=O)N(C)C1(C#N)CC1 [I-T3-131],100,100,100,3.9,100,100,100,,100,,,
CCc1cc(C(F)(C(F)(F)F)C(F)(F)F)ccc1-n1cc(-c2cnc(Cl)c(C(=O)NC3(C#N)CC3)c2)cn1 [I-T3-105],100,80,,4.1,85,100,,,100,,,100
Cc1cc(C(F)(C(F)(F)F)C(F)(F)F)cc(C(F)(F)F)c1-n1cc(-c2cnc(Cl)c(C(=O)N(C)C3CC3)c2)cn1 [I-T3-107],100,100,100,4.5,100,100,100,,100,,,
CCc1cc(C(F)(C(F)(F)F)C(F)(F)F)ccc1-n1cc(-c2cnc(Cl)c(C(=O)NC3CC3)c2)cn1 [I-T3-104],100,100,100,4.2,100,100,,100,100,,,
Cc1cc(C(F)(C(F)(F)F)C(F)(F)F)cc(C)c1-n1cc(-c2cnc(Cl)c(C(=O)N(C)C3CC3)c2)cn1 [I-T3-101],100,100,100,4.4,95,100,100,,100,,,
N#CC1(NC(=O)c2cc(-c3cnn(-c4ccc(C(F)(C(F)(F)F)C(F)(F)F)cc4C(F)(F)F)c3)ccc2Cl)CC1 [I-T3-53],100,100,100,,80,100,,100,100,,4.3,
CCc1cc(C(F)(C(F)(F)F)C(F)(F)F)cc(C)c1-n1cc(-c2ccc(Cl)c(C(=O)NC3CC3)c2)cn1 [I-T3-44],100,,100,,100,100,100,100,100,,4.7,
Cc1cc(C(F)(C(F)(F)F)C(F)(F)F)cc(C)c1-n1cc(-c2cnc(Cl)c(C(=O)N(C)C3(C#N)CC3)c2)cn1 [I-T3-103],100,100,100,4.3,90,100,100,,100,,,
CN(C(=O)c1cc(-c2cnn(-c3c(Cl)cc(C(F)(C(F)(F)F)C(F)(F)F)cc3Cl)c2)cnc1Cl)C1(C#N)CC1 [I-T3-102],100,100,100,4.3,90,100,100,,100,,,
N#CC1(NC(=O)c2cc(-c3cnn(-c4c(Cl)cc(C(F)(F)F)cc4Cl)c3)cnc2Cl)CC1 [I-T3-95],,,100,3.1,100,100,100,,100,,,
Cc1cc(C(F)(C(F)(F)F)C(F)(F)F)cc(C(F)(F)F)c1-n1cc(-c2cnc(Cl)c(C(=O)N(C)C3(C#N)CC3)c2)cn1 [I-T3-111],100,100,98,4.4,80,100,100,,100,,,
Cc1cc(C(F)(C(F)(F)F)C(F)(F)F)cc(Br)c1-n1cc(-c2ccc(Cl)c(C(=O)NC3CC3)c2)cn1 [I-T3-86],100,100,100,,100,100,100,,100,,4.5,
Cc1ncc(-c2cnn(-c3c(Cl)cc(C(F)(C(F)(F)F)C(F)(F)F)cc3C(F)(F)F)c2)cc1C(=O)NC1CC1 [I-T3-124],100,100,100,3.5,100,100,100,,100,,,
